Laboratory results: article PMC9570594, “Development of Novel Pyridine-Thiazole Hybrid Molecules as Potential Anticancer Agents” (Molecules, 2022)
Like-named read-outs stand apart in the source and are kept apart here.

Columns and labels:
[1] = test system: full panel of human tumor cell lines (MG_MID); assay: NCI five-dose SRB assay, full panel; type: cell-based
Protocol: Using absorbance measurements [time zero (Tz), control growth in the absence of drug (C), and test growth in the presence of drug (Ti)], the percentage growth was calculated for each drug concentration. Percentage growth inhibition was calculated as:
Dose response parameters (GI50, TGI, LC50) were calculated for each compound. […] The drug concentration resulting in total growth inhibition (TGI) was calculated from Ti = Tz. […] Values were calculated for each of these parameters if the level of activity was reached; however, if the effect was not reached or was excessive, the value for that parameter was expressed as more or less than the maximum or minimum concentration tested.

MDA-MB-435 (Melanoma) = assay: NCI five-dose SRB assay; type: cell-based; details: Homo sapiens, 48 h
[2] = test system: panel of 60 cancer cell lines; assay: NCI DTP one-dose primary anticancer assay (10^-5 M, SRB)
[3] = test system: A549/ATCC (Non-Small Cell Lung Cancer); assay: NCI five-dose SRB assay; type: cell-based; details: Homo sapiens, 48 h
HCT-116 (colon) = assay: MTT assay of cell viability; details: Homo sapiens, HCT-116, 72 h, HCT-116; 72 h of incubation, M ± SD
OVCAR-3 (Ovarian Cancer) = assay: NCI five-dose SRB assay; type: cell-based; details: Homo sapiens, 48 h
BT-549 (Breast Cancer) = assay: NCI five-dose SRB assay; type: cell-based; details: Homo sapiens, 48 h
U251 (CNS Cancer) = assay: NCI one-dose SRB assay; details: 10 μM, 48 h
Protocol: (§1) A primary anticancer assay was performed on a panel of approximately sixty human tumor cell lines derived from nine neoplastic diseases, in accordance with the protocol of the Drug Evaluation Branch, National Cancer Institute, Bethesda [31, 32, 33, 34, 35]. Tested compounds were added to the culture at a single concentration (10^−5 M) and the cultures were incubated for 48 h. End point determinations were made with a protein binding dye, Sulphorhodamine B (SRB). […] The percentage growth was evaluated spectrophotometrically versus controls not treated with test agents.

A549 (lung) = assay: MTT assay of cell viability; details: Homo sapiens, A549, 72 h
[4] = test system: NCI-H322M (Non-Small Cell Lung Cancer); assay: NCI five-dose SRB assay; type: cell-based; details: Homo sapiens, 48 h
786-0 (Renal Cancer) = assay: NCI five-dose SRB assay; type: cell-based; details: Homo sapiens, 48 h
CAKI-1 (Renal Cancer) = assay: NCI five-dose SRB assay; type: cell-based; details: Homo sapiens, 48 h
UACC-62 (Melanoma) = assay: NCI five-dose SRB assay; type: cell-based; details: Homo sapiens, 48 h
[5] = test system: murine macrophages of J774.2 line; assay: MTT assay of cell viability; details: Mus musculus, J774.2, 72 h
M14 (Melanoma) = assay: NCI five-dose SRB assay; type: cell-based; details: Homo sapiens, 48 h
MCF-7 cells = assay: PARP-1 inhibition in vitro: MTT after Fluzoparib pretreatment; type: cell-based, human; details: Homo sapiens, MCF7; MCF-7, compound alone (no preincubation), 72 h MTT; read-out: IC50
Protocol: Taking into account the above data, PARP1 inhibition in vitro was investigated using pretreatment of the MCF-7 cells with the Fluzoparib, a potent PARP1 inhibitor in the non-toxic concentrations of 5, 10, and 15 µM. It had no significant growth inhibitory effect in such doses, and a reduction of cell viability by only 10–12% was observed compared to control (non-treated) cells. […] The preincubation step was used to bind PARP1 molecules, which were the potential targets of the studied compounds and to test if it would affect the activity of 3 and 4. […] The preincubation of cells with the Fluzoparib decreased their sensitivity to the compound 3 treatment in a less pronounced manner, compared with the effect of the compound 4. […] Changes in structure of the started compound 3 may cause an enhancement of the ability of molecule 4 to inhibit the activity of PARP1.
To determine PARP inactivation, the MCF-7 cells were pretreated for 2 h in the non-toxic concentrations of 5, 10, 15 µM of the Fluzoparib (Med Chem Express, Monmouth Junction, NJ, USA), a potent PARP1 inhibitor used in the chemotherapy. Then, the medium was removed and increasing doses of the compounds 3 and 4 were added and cells were incubated for the next 72 h. The IC50 values of compounds were determined by the MTT assay, as described.

[6] = test system: NCI-H460 (Non-Small Cell Lung Cancer); assay: NCI five-dose SRB assay; type: cell-based; details: Homo sapiens, 48 h
[7] = test system: Melanoma cell lines (MG_MID); assay: NCI five-dose SRB assay; type: cell-based; details: Homo sapiens, 48 h
[8] = test system: BALB-3T3 (normal mouse fibroblasts); assay: MTT assay of cell viability; details: BALB/3T3, 72 h
CCRF-CEM (Leukemia) = assay: NCI five-dose SRB assay; type: cell-based; details: Homo sapiens, 48 h
HS 578T (Breast Cancer) = assay: NCI five-dose SRB assay; type: cell-based; details: Homo sapiens, 48 h
SF-539 (CNS Cancer) = assay: NCI one-dose SRB assay; details: 10 μM, 48 h
Protocol: as §1

KM12 (Colon Cancer) = assay: NCI one-dose SRB assay; details: 10 μM, 48 h
Protocol: as §1

OVCAR-5 (Ovarian Cancer) = assay: NCI five-dose SRB assay; type: cell-based; details: Homo sapiens, 48 h
[9] = test system: Prostate Cancer cell lines (MG_MID); assay: NCI five-dose SRB assay; type: cell-based; details: Homo sapiens, 48 h
[10] = test system: human embryonic kidney HEK293 cells; assay: MTT assay of cell viability; details: HEK293, 72 h
Colo 205 (Colon Cancer) = assay: NCI five-dose SRB assay; type: cell-based; details: Homo sapiens, 48 h

SMILES: CCOC(=O)c1ccc(NC(=O)CSC(CC(=O)c2sc(Nc3ccccn3)nc2C)c2ccccc2F)cc1 (stereo not shown) [Compound 4, Ethyl 4-[[2-[1-(2-Fluorophenyl)-3-[4-methyl-2-(2-pyridylamino)thiazol-5-yl]-3-oxopropyl]sulfanylacetyl]amino]benzoate]
- GI50 ([1]; Homo sapiens, RPMI-8226, NCI-H226, SNB-75, SF 539, M14, MDA-MB-435, UO-31, RXF 393, MDA-MB-468, read-out: active concentration range (GI50) towards most sensitive lines): 2.52 to 8.29 µM
- GI50 ([1]; Homo sapiens, full panel MG_MID (average GI50), 48 h, read-out: GI50): 31.7 µM
- LC50 (concentration giving 50% net tumour cell kill) ([1]; Homo sapiens, full panel, mainly): > 100 µM
- TGI ([1]; full panel, mainly): > 100 µM
- GI50 (MDA-MB-435 (Melanoma)): 26.3 µM
- Mean Growth, % ([2]; 10 μM, 48 h, 60 cell lines): −2.78%
- Range of Growth, % ([2]; 10 μM, 48 h, 60 cell lines): −76.78–41.12%
- Positive Cytostatic Effect ([2]; 10 μM, number of cell lines with percent growth from 0 to 50 / total number of cell lines): 35/60
- Positive Cytotoxic Effect ([2]; 10 μM, number of cell lines with percent growth of <0 / total number of cell lines): 25/60
- inhibition at 10 µM ([2]; Homo sapiens, 48 h, read-out: growth inhibition of all 60 tested cancer cell lines): > 50%
- GI50 [3]: 75.7 µM
- IC50 (HCT-116 (colon)): 6.11 ± 0.24 µM
- GI50 (OVCAR-3 (Ovarian Cancer)): 31.7 µM
- GI50 (BT-549 (Breast Cancer)): 14.7 µM
- Growth % (U251 (CNS Cancer)): −70.41%
- IC50 (A549 (lung)): 8.05 ± 0.24 µM
- GI50 [4]: 25.4 µM
- GI50 (786-0 (Renal Cancer)): 24.8 µM
- GI50 (CAKI-1 (Renal Cancer)): 11.5 µM
- GI50 (UACC-62 (Melanoma)): 16.1 µM
- IC50 [5]: > 50 µM
- GI50 (M14 (Melanoma)): 19.4 µM
- IC50 (MCF-7 cells): 3.53 µM
- GI50 [6]: 31.2 µM
- GI50 [7]: 25.3 µM
- IC50 [8]: 7.79 ± 0.38 µM
- GI50 (CCRF-CEM (Leukemia)): 18.6 µM
- GI50 (HS 578T (Breast Cancer)): 14.9 µM
- Growth % (SF-539 (CNS Cancer)): −27.26%
- Growth % (KM12 (Colon Cancer)): −59.82%
- GI50 (OVCAR-5 (Ovarian Cancer)): 74.4 µM
- GI50 [9]: 45.5 µM
- IC50 [10]: > 50 µM
- GI50 (Colo 205 (Colon Cancer)): > 100 µM
